The text below walks through data of patent US10730826B2, “Ketone inhibitors of lysine gingipain” (CORTEXYME, INC., priority 2016, dated 2020).

The test has as its system P. gingivalis W83. Put plainly: Mouse periodontitis model, GAD67 positive interneurons in the dentate gyrus. Format: in vivo, BALB/C mice. The following applies: 10 weeks, infected treated mice vs mock-infected. The method, then:
At the beginning of the study, eight week old BALB/C female mice received antibiotic in drinking water (sulfamethoxazolum 0.87 mg/mL, trimethoprimum 0.17 mg/mL) for 10 days to reduce microbiome protection from experiment infection. Experimental periodontitis was induced by ligature placement followed by multiple exposures to P. gingivalis. During the ligature procedure mice were anesthetized with an intraperitoneal injection of ketamine (200 mg/kg) and xylazine (10 mg/kg), and eyes were lubricated with ointment (Puralube Vet; Pharmaderm, Melville, N.Y.). Next, a 5-0 silk ligature (Roboz Surgical Instrument Co.) was tied around the upper maxillary left and right second molar. Sutures were applied and tied gently to prevent damage to the periodontal tissue.
Mice (n=8-10/arm) were infected for 6 weeks every other day. For infection, […]. of bacteria solution were applied topically to the buccal surface of the maxillae. For preparation of the bacteria, P. gingivalis W83 (ATCC, Rockville, Md.) was streaked on Tryptic Soy Broth (TSB) agar plates (5% sheep blood, supplemented with 0.5 mg/mL L-cysteine, 5 μg/mL hemin, and 0.5 μg/mL vitamin K) and grown under anaerobic conditions at 37° C. for 5-7 days. […]
Quantification of GAD67 positive interneurons was performed with CellSens 1.5. […] The number of cells on every 40th section through the hippocampus was counted. […]

On to `NCCCC[C@H](NC(=O)C1CCCC1)C(=O)COc1c(F)ccc(F)c1F` [Compound 1, (S)—N-(7-amino-2-oxo-1-(2,3,6-trifluorophenoxy)heptan-3-yl)cyclopentanecarboxamide], for which the “GAD67 positive interneurons in the dentate gyrus” value is “at the same level as the GAD67^+ cells in the mock-infected mice”.
